Test system: Utrophin A promoter linked to a luciferase reporter gene (H2K/mdx/Utro A reporter cell line)
Experiment: Luciferase reporter assay (murine H2K cells)
Format: cell-based, mouse
Settings: final concentration of 10 μM, 48 hrs
Experimental: 1. Luciferase Reporter Assay (Murine […] Cells) The cell line used for the screen is an immortalized mdx mouse H2K cell line that has been stably transfected with a plasmid containing ≈5 kb fragment of the Utrophin A promoter including the first untranslated exon linked to a luciferase reporter gene (see FIG. 1). Under conditions of low temperature and interferon containing media, the cells remain as myoblasts. These are plated into 96 well plates and cultured in the presence of compound for three days. The level of luciferase is then determined by cell lysis and reading of the light output from the expressed luciferase gene utilising a plate luminometer. The H2K/mdx/Utro A Reporter Cell Line Maintenance The H2K/mdx/Utro A reporter cell line was passaged twice a week until ≦30% confluent. The cells were grown at 33° C. in the presence of 10% CO2. To remove the myoblasts for platting, they were incubated with Trypsin/EDTA until the monolayer started to detach. […] Cells were then lysed in situ following the manufacture's protocols (Promega Steady-Glo Luciferase Assay System (E2520), then counted for 10 seconds using a plate luminometer (Victor1420). Biological activity was assessed using the luciferase reporter assay in murine H2K cells, and is classified as follows: […]

CCS(=O)(=O)c1ccc2oc(-c3ccc4ccccc4c3)nc2c1 [5-(ethylsulfonyl)-2-(naphthalen-2-yl)benzo[d]oxazole]
Biological activity, luciferase reporter assay, relative to control: +++ (Between 301% and 400% relative to control)

Reference: patent publication US8138351B2, “Treatment of duchenne muscular dystrophy” (Summit Corporation PLC, priority 2007, dated 2012)
